Structures can show the parent of a compound that is named as a salt. Where two headings read alike, the source gives them in different places. Blank lines part the entries; values can stand above or below the molecule they belong to.
Tests used:
[1] = Pharmacokinetic experiment in rats (i.g. vehicle 0.5% MC); assay type: in vivo; settings: male SD rats; for AUC(0-t): i.g. 20 mg/kg, vehicle 0.5% MC
Method: Objective: In this experiment, a single dose of each test compound was administered to SD rats intravenously and intragastrically, the concentrations of the test compound in plasma of rats were measured, and the pharmacokinetic characteristics and bioavailability of the test compound in rats were evaluated.
Experimental animals: Male SD rats, 200-250 g, 6-8 weeks old, 6 rats/test compound. The experimental animals were purchased from CHENGDU DOSSY EXPERIMENTAL ANIMALS CO., LTD.
Experimental method: On the day of the experiment, 6 SD rats were randomly grouped according to their body weight. The animals were fasted with water available for 12 to 14 hours one day before the administration of a test compound, and were fed 4 hours after the administration.
Sampling: Before and after the administration, 0.1 ml of blood was taken from the orbit of the rats under isoflurane anesthesia, and placed in an EDTAK2 centrifuge tube. Centrifugation was carried out at 5000 rpm at 4° C. for 10 min and the plasma was collected.
Time points for plasma collection in G1 group: 0, 5 m, 15 m, 30 m, 1 h, 2 h, 4 h, 6 h, 8 h, and 24 h.
Time points for plasma collection in G2 group: 0, 15 m, 30 m, 1 h, 2 h, 4 h, 6 h, 8 h, and 24 h.
Before analysis and detection, all samples were stored at −80° C. The samples were analyzed quantitatively by LC-MS/MS.

[2] = system: Mino cells; experiment: Inhibition of cell proliferation, Mino cells (Cell Viability Assay, 72 h); assay type: cell-based, human
Method: (§1) SU-DHL-4, Mino, and SU-DHL-6 cells, in the culture medium of RPMI1640+10% FBS, were cultured in an incubator at 37° C. under 5% CO2. Cells were plated in a 96-well plate. Specifically, SU-DHL-4 cells were at 20000/well, Mino and SU-DHL-6 cells were at 5000/well, with 90 μL/well. 10 μL of the compounds at different concentrations were added to each well. There were 3 replicate wells for each concentration, and the last column, added with DMSO, was used as a vehicle control group. The cultures were continued for 72 hours at 37° C. under 5% CO2. After 72 hours, 100 μL of detection reagent (Cell Viability Assay, Promega, G7573) was added to each well, and the cultures were uniformly mixed for 2 minutes, and incubated at room temperature for 10 minutes. The fluorescence signal value was measured with a microplate reader (PHERAstar FSX). The IC50 value of the compound on cell proliferation inhibition was calculated using Origin 9.2 software, and the inhibition rate at the highest concentration of the compound (Max inhi. %) was calculated according to formula (1). Max inhi. %=(1-T72 administration/T72 vehicle)×100 Formula (1).

[3] = system: SU-DHL-4 cells; experiment: Inhibition of cell proliferation, SU-DHL-4 cells (Cell Viability Assay, 72 h); assay type: cell-based, human; settings: for SU-DHL-4 Max inhi. %: inhibition rate at the highest concentration of the compound
Method: as §1

[4] = Sprague-Dawley (SD), rat, po, plasma, read-out: AUC0-t

- AUC(0-t) ([1]; plasma): 891 ± 164 ng·h/mL
SMILES: Nc1ncnc2c1c(-c1ccc(Oc3ccccc3)cc1)nn2[C@@H]1CCN(C2CCN(C3CN(c4ccc5c(c4)C(=O)N(C4CCC(=O)NC4=O)C5=O)C3)CC2)C[C@H]1F (relative stereo) [Compound 20-1, trans-5-(3-(4-(4-amino-3-(4-phenoxyphenyl)-1H-pyrazolo[3,4-d]pyrimidin-1-yl)-3-fluoro-[1,4′-bipiperidin]-1′-yl)azetidin-1-yl)-2-(2,6-dioxopiperidin-3-yl)isoindoline-1,3-dione]
- IC50 [2]: 32 nM

SMILES: Nc1ncnc2c1c(-c1ccc(Oc3ccccc3)cc1)nn2[C@@H]1CCCN(C2CCC(N3CC(Oc4ccc5c(c4)C(=O)N(C4CCC(=O)NC4=O)C5=O)C3)CC2)C1 (single isomer, unassigned) [Compound 34-a]
- SU-DHL-4 Max inhi. % [3]: 94.4%

SMILES: Nc1ncnc2c1c(-c1ccc(Oc3ccccc3)cc1)nn2[C@@H]1CCCN(C2CCC(N3CC(Oc4ccc5c(c4)C(=O)N(C4CCC(=O)NC4=O)C5=O)C3)CC2)C1 (single isomer, unassigned) [Compound 34-b]
- SU-DHL-4 Max inhi. % [3]: 99.2%

SMILES: Nc1ncnc2c1c(-c1ccc(Oc3ccccc3)cc1)nn2C1CCN(C2CC3(CCN(c4ccc5c(c4)C(=O)N(C4CCC(=O)NC4=O)C5=O)CC3)C2)CC1 (stereo not shown) [Compound 1, 5-[2-[4-[4-amino-3-(4-phenoxyphenyl)pyrazolo[3,4-d]pyrimidin-1-yl]-1-piperidyl]-7-azaspiro[3.5]nonan-7-yl]-2-(2,6-dioxo-3-piperidyl)isoindoline-1,3-dione]
- AUC(0-t) [1, 4]: 479 ± 197 ng·h/mL

- AUC(0-t) [1, 4]: 211 ± 46 ng·h/mL
SMILES: Nc1ncnc2c1c(-c1ccc(Oc3ccccc3)cc1)nn2C1CCN(c2cnc(N3CC4CN(c5ccc6c(c5)C(=O)N(C5CCC(=O)NC5=O)C6=O)CC4C3)nc2)CC1 (stereo not shown) [Compound 3, 5-[5-[5-[4-[4-amino-3-(4-phenoxyphenyl)pyrazolo[3,4-d]pyrimidin-1-yl]-1-piperidyl]pyrimidin-2-yl]-1,3,3a,4,6,6a-hexahydropyrrolo[3,4-c]pyrrol-2-yl]-2-(2,6-dioxo-3-piperidyl)isoindoline-1,3-dione tetratrifluoroacetate]

- AUC(0-t) [1, 4]: 36 ± 10 ng·h/mL
SMILES: Nc1ncnc2c1c(-c1ccc(Oc3ccccc3)cc1)nn2C1CCN(c2cnc(N3CC4(CCN(c5ccc6c(c5)C(=O)N(C5CCC(=O)NC5=O)C6=O)CC4)C3)nc2)CC1 (stereo not shown) [Compound 4, 5-[2-[5-[4-[4-amino-3-(4-phenoxyphenyl)pyrazolo[3,4-d]pyrimidin-1-yl]-1-piperidyl]pyrimidin-2-yl]-2,7-diazaspiro[3.5]nonan-7-yl]-2-(2,6-dioxo-3-piperidyl)isoindoline-1,3-dione]

- AUC(0-t) [1, 4]: 81.7 ± 68 ng·h/mL
SMILES: Nc1ncnc2c1c(-c1ccc(Oc3ccccc3)cc1)nn2C1CCN(c2cnc(N3CCC4(CC3)CN(c3ccc5c(c3)C(=O)N(C3CCC(=O)NC3=O)C5=O)C4)nc2)CC1 (stereo not shown) [Compound 5, 5-[7-[5-[4-[4-amino-3-(4-phenoxyphenyl)pyrazolo[3,4-d]pyrimidin-1-yl]-1-piperidyl]pyrimidin-2-yl]-2,7-diazaspiro[3.5]nonan-2-yl]-2-(2,6-dioxo-3-piperidyl)isoindoline-1,3-dione]

- AUC(0-t) [1, 4]: 105 ± 54 ng·h/mL
SMILES: Nc1ncnc2c1c(-c1ccc(Oc3ccccc3)cc1)nn2C1CCN(Cc2cnc(N3CC4(CCN(c5ccc6c(c5)C(=O)N(C5CCC(=O)NC5=O)C6=O)CC4)C3)nc2)CC1 (stereo not shown) [Compound 7, 5-[2-[5-[[4-[4-amino-3-(4-phenoxyphenyl)pyrazolo[3,4-d]pyrimidin-1-yl]-1-piperidyl]methyl]pyrimidin-2-yl]-2,7-diazaspiro[3.5]nonan-7-yl]-2-(2,6-dioxo-3-piperidyl)isoindoline-1,3-dione tritrifluoroacetate]

- IC50 ([3]; Homo sapiens): 70 nM
SMILES: Nc1ncnc2c1c(-c1ccc(Oc3ccccc3)cc1)nn2C1CCN(C2CN(C3CCN(C4CCN(C5CN(c6ccc7c(c6)C(=O)N(C6CCC(=O)NC6=O)C7=O)C5)CC4)CC3)C2)CC1 (stereo not shown) [Compound 13, 5-[3-[4-[4-[3-[4-[4-amino-3-(4-phenoxyphenyl)pyrazolo[3,4-d]pyrimidin-1-yl]-1-piperidyl]azetidin-1-yl]-1-piperidyl]-1-piperidyl]azetidin-1-yl]-2-(2,6-dioxo-3-piperidyl)isoindoline-1,3-dione]
- IC50 ([2]; Homo sapiens): 677 nM

- bioavailability ([1]; Sprague-Dawley (SD), rat, plasma, po, i.g. 20 mg/kg (0.5% MC) vs i.v. 5 mg/kg): 12.4 ± 3.8%
- AUC(0-t) [1, 4]: 3200 ± 973 ng·h/mL
SMILES: Nc1ncnc2c1c(-c1ccc(Oc3ccccc3)cc1)nn2C1CCN(C2CN(C3CN(c4cc5c(cc4F)C(=O)N(C4CCC(=O)NC4=O)C5=O)C3)C2)CC1 (stereo not shown) [Compound 21, 5-(3-(4-(4-amino-3-(4-phenoxyphenyl)-1H-pyrazolo[3,4-d]pyrimidin-1-yl)piperidin-1-yl)-[1,3′-biazetidin]-1′-yl)-2-(2,6-dioxopiperidin-3-yl)-6-fluoroisoindoline-1,3-dione]

SMILES: Nc1ncnc2c1c(-c1ccc(Oc3ccccc3)cc1)nn2C1CCN(C2CCC(N3CC(Oc4ccc5c(c4)C(=O)N(C4CCC(=O)NC4=O)C5=O)C3)CC2)CC1 (stereo not shown) [Compound 36-a, 5-[1-[4-[4-[4-amino-3-(4-phenoxyphenyl)pyrazolo[3,4-d]pyrimidin-1-yl]-1-piperidyl]cyclohexyl]azetidin-3-yl]oxy-2-(2,6-dioxo-3-piperidyl)isoindoline-1,3-dione]
- SU-DHL-4 Max inhi. % [3]: 99.6%

SMILES: Nc1ncnc2c1c(-c1ccc(Oc3ccccc3)cc1)nn2C1CCN(C2CCC(N3CC(Oc4ccc5c(c4)C(=O)N(C4CCC(=O)NC4=O)C5=O)C3)CC2)CC1 (stereo not shown) [Compound 36-b, 5-[1-[4-[4-[4-amino-3-(4-phenoxyphenyl)pyrazolo[3,4-d]pyrimidin-1-yl]-1-piperidyl]cyclohexyl]azetidin-3-yl]oxy-2-(2,6-dioxo-3-piperidyl)isoindoline-1,3-dione trifluoroacetate]
- SU-DHL-4 Max inhi. % ([3]; trifluoroacetate): 99.8%

- F (%) ([1]; i.g. 20 mg/kg (0.5% MC) vs i.v. 5 mg/kg): 4.14 ± 2.1%
- AUC(0-t) ([1]; plasma): 475 ± 237 ng·h/mL
SMILES: Nc1ncnc2c1c(-c1ccc(Oc3ccccc3)cc1)nn2C1CCN(C2CCN(C3CN(c4ccc5c(c4)C(=O)N(C4CCC(=O)NC4=O)C5=O)C3)CC2F)CC1 (stereo not drawn) [Compound 49-2, cis-5-(3-(4-(4-amino-3-(4-phenoxyphenyl)-1H-pyrazolo[3,4-d]pyrimidin-1-yl)-3′-fluoro-[1,4′-bipiperidin]-1′-yl)azetidin-1-yl)-2-(2,6-dioxopiperidin-3-yl)isoindoline-1,3-dione-P2]
- IC50 [2]: 10 nM

SMILES: Nc1ncnc2c1c(-c1ccc(Oc3ccccc3)cc1)nn2C1CCN(C2C[C@@H]3CN(C4CN(c5ccc6c(c5)C(=O)N(C5CCC(=O)NC5=O)C6=O)C4)C[C@@H]3C2)CC1 (stereo partly drawn) [Compound 59, 5-(3-((3aR,6aS)-5-(4-(4-amino-3-(4-phenoxyphenyl)-1H-pyrazolo[3,4-d]pyrimidin-1-yl)piperidin-1-yl)hexahydrocyclopenta[c]pyrrol-2(1H)-yl)azetidin-1-yl)-2-(2,6-dioxopiperidin-3-yl)isoindoline-1,3-dione]
- IC50 ([2]; Homo sapiens): 501 nM

SMILES: Nc1ncnc2c1c(-c1ccc(Oc3ccccc3)cc1)nn2C1CCN(C2CN(C3CN(C4CN(c5ccc6c(c5)C(=O)N(C5CCC(=O)NC5=O)C6=O)C4)C3)C2)CC1 (stereo not shown) [Compound 60, 5-(3-(4-(4-amino-3-(4-phenoxyphenyl)-1H-pyrazolo[3,4-d]pyrimidin-1-yl)piperidin-1-yl)-[1,3′:1′,3″-terazetidin]-1H-yl)-2-(2,6-dioxopiperidin-3-yl)isoindoline-1,3-dione]
- IC50 ([2]; Homo sapiens): 165 nM

SMILES: Nc1ncnc2c1c(-c1ccc(Oc3ccccc3)cc1)nn2C1CCN(C2CN(C3C[C@@H]4CN(c5ccc6c(c5)C(=O)N(C5CCC(=O)NC5=O)C6=O)C[C@@H]4C3)C2)CC1 (stereo partly drawn) [Compound 61, 5-((3aR,6aS)-5-(3-(4-(4-amino-3-(4-phenoxyphenyl)-1H-pyrazolo[3,4-d]pyrimidin-1-yl)piperidin-1-yl)azetidin-1-yl)hexahydrocyclopenta[c]pyrrol-2(1H)-yl)-2-(2,6-dioxopiperidin-3-yl)isoindoline-1,3-dione]
- IC50 ([2]; Homo sapiens): 100 nM

SMILES: Nc1ncnc2c1c(-c1ccc(Oc3ccccc3)cc1)nn2C1CCN(C2CN(C3CC4(CCN(c5ccc6c(c5)C(=O)N(C5CCC(=O)NC5=O)C6=O)CC4)C3)C2)CC1 (stereo not shown) [Compound 62, 5-(2-(3-(4-(4-amino-3-(4-phenoxyphenyl)-1H-pyrazolo[3,4-d]pyrimidin-1-yl)piperidin-1-yl)azetidin-1-yl)-7-azaspiro[3.5]nonan-7-yl)-2-(2,6-dioxopiperidin-3-yl)isoindoline-1,3-dione]
- IC50 ([2]; Homo sapiens): 38 nM
